Consider 28 compounds from ChEMBL document CHEMBL1165944, “Synthesis and biological evaluation of a new series of berberine derivatives as dual inhibitors of acetylcholinesterase and butyrylcholinesterase” (Bioorg Med Chem, 2010).

For one experiment, the target named is Acetylcholinesterase (Electrophorus electricus, UniProt O42275). Kind of experiment: Inhibition of electric eel AChE by Ellman's assay.
A further experiment concerns the target Cholinesterase (Equus caballus, UniProt P81908). As to the kind of experiment: Inhibition of equine serum BuChE by Ellman's method.

Chain of Acetylcholinesterase (O42275 whole entry): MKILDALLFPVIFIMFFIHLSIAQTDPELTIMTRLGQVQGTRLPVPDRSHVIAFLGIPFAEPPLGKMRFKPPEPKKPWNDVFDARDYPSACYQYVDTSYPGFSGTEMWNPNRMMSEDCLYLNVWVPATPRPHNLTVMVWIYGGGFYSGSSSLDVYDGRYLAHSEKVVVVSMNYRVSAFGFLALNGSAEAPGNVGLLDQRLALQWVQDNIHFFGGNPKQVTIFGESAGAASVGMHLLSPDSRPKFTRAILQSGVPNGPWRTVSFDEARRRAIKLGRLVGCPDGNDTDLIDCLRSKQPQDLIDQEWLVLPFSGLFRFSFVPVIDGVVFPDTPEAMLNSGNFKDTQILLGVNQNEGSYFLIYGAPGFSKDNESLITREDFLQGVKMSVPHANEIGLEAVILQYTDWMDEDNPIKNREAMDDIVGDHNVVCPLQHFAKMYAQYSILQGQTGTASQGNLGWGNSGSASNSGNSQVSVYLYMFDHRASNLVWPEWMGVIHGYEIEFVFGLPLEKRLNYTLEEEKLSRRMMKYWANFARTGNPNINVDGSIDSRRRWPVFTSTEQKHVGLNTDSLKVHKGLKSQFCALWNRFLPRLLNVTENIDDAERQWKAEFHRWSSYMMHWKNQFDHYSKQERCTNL
Chain of Cholinesterase (P81908 whole entry): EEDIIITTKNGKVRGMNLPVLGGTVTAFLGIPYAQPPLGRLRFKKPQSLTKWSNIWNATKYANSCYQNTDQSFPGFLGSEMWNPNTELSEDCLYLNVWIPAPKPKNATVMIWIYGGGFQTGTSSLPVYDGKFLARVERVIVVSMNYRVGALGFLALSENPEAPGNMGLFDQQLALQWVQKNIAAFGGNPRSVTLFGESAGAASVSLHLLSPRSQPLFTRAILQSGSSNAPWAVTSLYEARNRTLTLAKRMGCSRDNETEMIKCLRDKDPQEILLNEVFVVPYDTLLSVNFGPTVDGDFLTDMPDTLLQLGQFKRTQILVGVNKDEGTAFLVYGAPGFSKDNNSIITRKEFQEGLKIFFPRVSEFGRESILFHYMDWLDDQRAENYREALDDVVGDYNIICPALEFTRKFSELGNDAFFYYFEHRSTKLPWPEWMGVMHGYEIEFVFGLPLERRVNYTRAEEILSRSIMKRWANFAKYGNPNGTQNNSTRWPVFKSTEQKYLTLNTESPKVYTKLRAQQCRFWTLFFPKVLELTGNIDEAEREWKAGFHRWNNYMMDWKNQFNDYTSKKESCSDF

`COc1ccc2cc3[n+](cc2c1OCCCOc1c(OC)ccc2cc4[n+](cc12)CCc1cc2c(cc1-4)OCO2)CCc1cc2c(cc1-3)OCO2` showed an IC50 on Acetylcholinesterase of 226 nM.

`COc1ccc2cc3[n+](cc2c1OCCOc1c(OC)ccc2cc4[n+](cc12)CCc1cc2c(cc1-4)OCO2)CCc1cc2c(cc1-3)OCO2`: the IC50 at Acetylcholinesterase came out at 320 nM. The IC50 values of the last two compounds are within 1.5-fold of each other.

As for `COc1ccc2cc3[n+](cc2c1OCCCCOc1ccc(Cl)cc1)CCc1cc2c(cc1-3)OCO2`, half-maximal inhibition against Acetylcholinesterase (IC50) required 1500 nM.

As for `COc1ccc2cc3[n+](cc2c1OCCCOc1ccc(Br)cc1)CCc1cc2c(cc1-3)OCO2`, half-maximal inhibition against Acetylcholinesterase (IC50) required 265 nM.

With `COc1ccc2cc3[n+](cc2c1OCCCCOc1ccccn1)CCc1cc2c(cc1-3)OCO2`, 340 nM corresponded to half-maximal inhibition at Acetylcholinesterase (IC50). The IC50 values of the last two compounds are within 1.5-fold of each other.

As for `COc1ccc2cc3[n+](cc2c1OCCCN(C)c1ccccc1)CCc1cc2c(cc1-3)OCO2`, on Acetylcholinesterase, the IC50 turned out to be 156 nM.

The compound `COc1ccc2cc3[n+](cc2c1OCCCOc1ccc2ccccc2c1)CCc1cc2c(cc1-3)OCO2` registered an IC50 at Acetylcholinesterase of 359 nM.

Turning to `COc1ccc2cc3[n+](cc2c1OCCCSc1ccc2ccccc2c1)CCc1cc2c(cc1-3)OCO2`, on Acetylcholinesterase, the IC50 came to 500 nM. The IC50 values of the last two compounds are within 1.5-fold of each other.

Take `COc1ccc2cc3[n+](cc2c1OCCCCOc1ccc(Br)cc1)CCc1cc2c(cc1-3)OCO2`: 743 nM corresponded to half-maximal inhibition on Acetylcholinesterase (IC50).

At Acetylcholinesterase, `COc1ccc2cc3[n+](cc2c1OCCCCSc1ccc2ccccc2c1)CCc1cc2c(cc1-3)OCO2` registered an IC50 of 1350 nM.

`COc1ccc2cc3[n+](cc2c1OCCCOc1ccc([N+](=O)[O-])cc1)CCc1cc2c(cc1-3)OCO2` registered an IC50 at Acetylcholinesterase of 400 nM.

At Acetylcholinesterase, `COc1ccc2cc3[n+](cc2c1OCCC(=O)Nc1ccccc1)CCc1cc2c(cc1-3)OCO2` registered an IC50 of 535 nM.

`COc1ccc2cc3[n+](cc2c1OCCC(=O)Nc1ccc(C)cc1)CCc1cc2c(cc1-3)OCO2` gave an IC50 against Acetylcholinesterase of 1460 nM. This IC50 is about 2.7-fold higher than that of the compound before.

For the compound `COc1ccc2cc3[n+](cc2c1OCCC(=O)Nc1ccc([N+](=O)[O-])cc1)CCc1cc2c(cc1-3)OCO2`, the results for the IC50 at Cholinesterase and against Acetylcholinesterase were 5530 nM and 6500 nM, respectively.

The compound `COc1ccc2cc3[n+](cc2c1OCCCOc1ccc(Cl)cc1)CCc1cc2c(cc1-3)OCO2` had an IC50 at Acetylcholinesterase of 715 nM.

Compound `COc1ccc2cc3[n+](cc2c1OCCCNc1ccccc1)CCc1cc2c(cc1-3)OCO2` came in with an IC50 at Acetylcholinesterase of 138 nM.

With `COc1ccc2cc3[n+](cc2c1OCC[n+]1ccccc1)CCc1cc2c(cc1-3)OCO2`, it took 196 nM to reach half-maximal inhibition on Acetylcholinesterase (IC50).

On to `COc1ccc2cc3[n+](cc2c1OCCC[n+]1ccccc1)CCc1cc2c(cc1-3)OCO2`, for which half-maximal inhibition against Acetylcholinesterase (IC50) was put at 359 nM. This IC50 is about 1.8-fold higher than that of the compound before.

Consider `COc1ccc2cc3[n+](cc2c1OCCCCOc1ccc2ccccc2c1)CCc1cc2c(cc1-3)OCO2`, for which half-maximal inhibition against Acetylcholinesterase (IC50) required 1900 nM.

On Acetylcholinesterase, `COc1ccc2cc3[n+](cc2c1OCCC(=O)Nc1ccc(Cl)cc1)CCc1cc2c(cc1-3)OCO2` yielded an IC50 of 3860 nM.

As to `COc1ccc2cc3[n+](cc2c1OCC[n+]1cccc(C)c1)CCc1cc2c(cc1-3)OCO2`, half-maximal inhibition on Acetylcholinesterase (IC50) was put at 48 nM. Against the preceding compound, the IC50 is about 80-fold lower.

At Acetylcholinesterase, `COc1ccc2cc3[n+](cc2c1OCCC[n+]1cccc(C)c1)CCc1cc2c(cc1-3)OCO2` displayed an IC50 of 152 nM.

`COc1ccc(NC(=O)CCOc2c(OC)ccc3cc4[n+](cc23)CCc2cc3c(cc2-4)OCO3)cc1` yielded an IC50 against Acetylcholinesterase of 2800 nM.

On Acetylcholinesterase, `COc1ccc2cc3[n+](cc2c1OCCCOc1ccc(C)cc1)CCc1cc2c(cc1-3)OCO2` yielded a half-maximal inhibitory concentration (IC50) of 878 nM.

In turn, `COc1ccc(OCCCOc2c(OC)ccc3cc4[n+](cc23)CCc2cc3c(cc2-4)OCO3)cc1` gave an IC50 against Acetylcholinesterase of 1000 nM.

Turning to `COc1ccc2cc3[n+](cc2c1OCCCCOc1c(OC)ccc2cc4[n+](cc12)CCc1cc2c(cc1-4)OCO2)CCc1cc2c(cc1-3)OCO2`, on Acetylcholinesterase, half-maximal inhibition (IC50) was put at 176 nM.

As to `COc1ccc(OCCCCOc2c(OC)ccc3cc4[n+](cc23)CCc2cc3c(cc2-4)OCO3)cc1`, it took 748 nM to reach half-maximal inhibition on Acetylcholinesterase (IC50). Compared with the last compound, the IC50 is about 4.2-fold higher.

As to `COc1ccc2cc3[n+](cc2c1OCCCCOc1ccc([N+](=O)[O-])cc1)CCc1cc2c(cc1-3)OCO2`, on Acetylcholinesterase, 490 nM corresponded to half-maximal inhibition (IC50).
